The values that follow come from publication PMC5041982, “Small-molecule inhibition of STAT3 in radioresistant head and neck squamous cell carcinoma” (Oncotarget, 2016).

Data set [1] has as its target T1, pSTAT1 (Tyr-701) (Homo sapiens, UniProt P42224).
T1 construct: endogenous in cells; host or cells: Kasumi-1
T1 sequence (P42224 1-750): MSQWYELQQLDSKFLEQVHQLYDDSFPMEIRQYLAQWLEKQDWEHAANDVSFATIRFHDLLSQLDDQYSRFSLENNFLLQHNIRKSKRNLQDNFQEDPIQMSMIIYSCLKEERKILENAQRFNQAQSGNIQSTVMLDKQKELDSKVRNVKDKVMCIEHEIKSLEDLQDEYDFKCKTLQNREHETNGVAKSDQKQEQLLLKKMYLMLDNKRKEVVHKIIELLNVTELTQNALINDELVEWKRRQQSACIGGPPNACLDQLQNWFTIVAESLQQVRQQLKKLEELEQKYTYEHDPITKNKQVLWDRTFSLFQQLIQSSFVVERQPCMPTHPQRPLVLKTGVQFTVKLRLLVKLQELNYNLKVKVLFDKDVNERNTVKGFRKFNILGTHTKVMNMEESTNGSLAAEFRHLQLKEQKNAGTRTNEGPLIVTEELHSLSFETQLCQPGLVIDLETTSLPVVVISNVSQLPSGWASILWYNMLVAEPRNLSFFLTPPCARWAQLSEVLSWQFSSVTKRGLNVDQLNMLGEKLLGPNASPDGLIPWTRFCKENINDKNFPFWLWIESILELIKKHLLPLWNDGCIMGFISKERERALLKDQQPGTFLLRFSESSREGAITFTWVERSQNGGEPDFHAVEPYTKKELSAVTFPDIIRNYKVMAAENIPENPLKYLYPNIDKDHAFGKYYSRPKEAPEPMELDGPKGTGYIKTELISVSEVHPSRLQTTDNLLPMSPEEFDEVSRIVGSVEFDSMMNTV
Nature of the data set: Luminex bead-based assay, G-CSF-induced pSTAT1 in Kasumi-1 cells. Format: cell-based. As to the method: The equilibrium binding levels obtained ± compound were normalized (resonance obtained in the presence of compound ÷ the resonance obtained in the absence of compound × 100) and plotted against Log [nM] […] B. Inhibition of ligand-stimulated STAT phosphorylation, measured by phosphoflow. Serum-starved (1 hour) Kasumi-1 cells, pre-incubated with compound/DMSO (1 hour), were treated with G-CSF (10 ng/ml, 15 min, left two panels) or IFN-γ (10ng/ml, 15 min, right panel). Cells were permeabilized and stained with Alexa647-pSTAT3, and PE-pSTAT1 antibodies and analyzed on BD LSR2. FCS files were uploaded to Cytobank for pSTAT3 and pSTAT1 quantitation. Histograms depicting pSTAT3 and pSTAT1 levels are shown. C. Mean fluorescence (pSTAT3/1) levels were plotted as function the Log [M] compound, and IC50 calculated using GraphPad. […] D. Inhibition of ligand-stimulated STAT phosphorylation, measured by Luminex. Serum-starved (1 hour) Kasumi-1 cells, pre-incubated with compound/DMSO (0/0.1/0.3/1/3/10/100 μM, 1 hour), were treated with G-CSF (10 ng/ml, 15′). Total protein extracts of cells were assayed for pSTAT3, pSTAT1, and GAPDH levels by Luminex. […] These values were plotted as a function of Log [M] compound, and IC50 values calculated using GraphPad. […]
for analysis as described below. were determined by plotting % maximum response as a 3-D pharmacophore generation function of log concentration of compound and fitting the Each molecular chemical feature, including experimental points to a competitive binding model using hydrogen bond donor, hydrogen bond acceptor, positive a four parameter logistic equation: R = Rhigh − (Rhigh − R low)/ (1 + conc/A1)^A2, where R = percent response at and negative ionizable group, and hydrophobic region, inhibitor concentration, R = percent response with no was generated using the LigandScout application compound, R= percent response at highest compound high framework and projected into 3-D space. concentration, A2 = fitting parameter (slope) and A1 = low Feature-pairing IC50 (BIAevaluation Software version 4.1). […]

For data set [2], the system named is pSTAT5. Nature of the data set: Phosphoflow, G-CSF-induced pSTAT5 in Kasumi-1 cells. Format: cell-based. As to conditions: mean, n ≥ 2, read-out: Ligand Induced Phosphorylation (Phosphoflow) pSTAT5 (G-CSF) IC50.
Data set [3] has as its system UM-SCC-17B xenografts. The data set can be described thus: UM-SCC-17B tumor xenograft growth in nude mice. Format: in vivo. As to conditions: IP 5 times a week, 50 mg/kg/day. The protocol: (§1) Tumor volumes were measured twice weekly.
as §1

Data set [4] in a line: Solubility in PBS. The note with it: 60 min at 37°C in PBS, pH 7.4. Format: physicochemical.

Converted amounts (≈) assume the structure as drawn. Like-named read-outs stand apart in the source and are kept apart here.

As to `COc1ccc(S(=O)(=O)Nc2cc(-c3c(O)ccc4ccccc34)c(O)c3ccccc23)cc1` [Compound C188-9], the IC50 (in general, the concentration that inhibits the measured activity by half) in data set [1] (Figure 2D, Kasumi-1, G-CSF, read-out: Luminex pSTAT1 (Tyr-701) IC50, representative experiment) was determined as 3 µM; in data set [1] (Kasumi-1, mean, n ≥ 2, read-out: G-CSF Induced Phosphorylation (Luminex) pSTAT1 IC50) it was 4.1 ± 3.3 µM; in data set [2], 5.1 ± 3.6 µM. Further, the “Growth of established UM-SCC-17B xenograft tumors” value in data set [3] is “markedly reduced”. Further, the solubility (usually how much of the substance goes into solution per volume) at 60 min in data set [4] turned out to be 13.1 µM (≈ 6.18 µg/mL).
